# According to patent US5834463A, “Condensed heterocyclic compounds, their production and use” (Takeda Chemical Industries, Ltd., priority 1994, dated 1998):
# Tested on: not given
# Test: not given
# Conditions: for example, prostatic cancer; cited from earlier work
row,SMILES,anti-tumor activity against hormone-dependent cancers
1,CCNC(=O)[C@@H]1CCCN1C(=O)[C@H](CCCNC(=N)N)NC(=O)[C@H](CC(C)C)NC(=O)[C@@H](CC(C)C)NC(=O)[C@H](Cc1ccc(O)cc1)NC(=O)[C@H](CO)NC(=O)[C@H](Cc1c[nH]c2ccccc12)NC(=O)[C@H](Cc1c[nH]cn1)NC(=O)[C@@H]1CCC(=O)N1 [Leuprorelin acetate],shows anti-tumor activity

# Same assay, conditions: repeated administration; cited from earlier work
row,SMILES,productivity of testosterone
1,CCNC(=O)[C@@H]1CCCN1C(=O)[C@H](CCCNC(=N)N)NC(=O)[C@H](CC(C)C)NC(=O)[C@@H](CC(C)C)NC(=O)[C@H](Cc1ccc(O)cc1)NC(=O)[C@H](CO)NC(=O)[C@H](Cc1c[nH]c2ccccc12)NC(=O)[C@H](Cc1c[nH]cn1)NC(=O)[C@@H]1CCC(=O)N1 [Leuprorelin acetate],reduce the productivity of testosterone to the level of castration

# Tested on: GnRH receptor
# Test: not given
# Conditions: relative to GnRH obtained from natural sources; cited from earlier work
row,SMILES,affinity to GnRH receptor
1,CCNC(=O)[C@@H]1CCCN1C(=O)[C@H](CCCNC(=N)N)NC(=O)[C@H](CC(C)C)NC(=O)[C@@H](CC(C)C)NC(=O)[C@H](Cc1ccc(O)cc1)NC(=O)[C@H](CO)NC(=O)[C@H](Cc1c[nH]c2ccccc12)NC(=O)[C@H](Cc1c[nH]cn1)NC(=O)[C@@H]1CCC(=O)N1 [leuprorelin],higher affinity to GnRH receptor than GnRH obtained from natural sources

# Tested on: ethanol-induced sleep in mice
# Test: Effects on ethanol-induced sleep in mice
# Type: in vivo, ICR male mice
# Conditions: 30 mg/kg orally, 30 minutes before 25% ethanol i.p.; 8 animals
# Method: (F) Effects on ethanol-induced sleep in mice
# ICR male mice of 4-5 week old were orally administered with test compounds suspended in a physiological saline solution or 5% gum arabic solution at a dosage of 30 mg/kg (8 animals in each group). Thirty minutes later, test animals were intrapritoneally injected with 25% ethanol (0.2 mL/10 g). The duration of sleep was measured as the time from the onset of righting reflex until the righting reflex was regained.
row,SMILES,Percentage (%) of sleeping time relative to control [%]
1,CC(=O)N1c2ccccc2N(Cc2ccccc2)C(=O)[C@H]2CCC[C@H]21 (relative stereo) [compound 64],41
2,Nc1ccc(CN2C(=O)C3CCCC3=Nc3ccccc32)cc1 (stereo not shown) [compound 17],33
3,O=C1N(Cc2ccccc2)c2ccccc2NC2CCCC12Cc1ccccc1 (stereo not shown) [compound 29],50
4,O=C1[C@H]2CCC[C@H]2Nc2ccccc2N1Cc1ccc(Cl)cc1Cl (relative stereo) [compound 37],145
5,CN1c2ccccc2N(Cc2ccccc2)C(=O)[C@H]2CCC[C@H]21 (relative stereo) [compound 63],37

# Target: T1, human GnRH receptor (Homo sapiens, UniProt P30968)
# T1 construct: expressed in transfected cells; host or cells: CHO (Chinese Hamster Ovary) cells, membrane fraction
# T1 sequence (P30968 1-328): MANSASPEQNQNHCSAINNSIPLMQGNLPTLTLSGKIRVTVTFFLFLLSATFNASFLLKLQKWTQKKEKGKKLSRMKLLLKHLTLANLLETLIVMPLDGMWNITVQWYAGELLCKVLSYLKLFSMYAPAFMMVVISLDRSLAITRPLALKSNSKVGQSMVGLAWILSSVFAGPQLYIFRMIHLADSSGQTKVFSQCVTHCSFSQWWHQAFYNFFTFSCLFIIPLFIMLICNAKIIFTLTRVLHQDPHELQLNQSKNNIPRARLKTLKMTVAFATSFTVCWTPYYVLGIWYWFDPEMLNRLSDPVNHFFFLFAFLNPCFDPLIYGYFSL
# Test: Test for inhibition of ^125 I-leuprorelin binding to human GnRH receptor
# Conditions: membrane fraction of CHO cells expressing human GnRH receptors, 25° C., 60 minutes, read-out: Binding Inhibitory Activity (IC50, μM) for human GnRH receptor
# Method: (A) Preparation of ^125 I-leuprorelin
# Ten μl of a 3×10^-4 M aqueous solution of leuprorelin and 10μl of 0.01 mg/ml lactoperoxidase in 0.1M Hepes buffer (pH7.4) were put in a tube, to which was added 10 μl of an Na^125 I solution (37 MBq). The mixture was stirred, to which was added 10 μl of 0.001% H2 O2, followed by allowing the reaction to proceed for 20 minutes at room temperature. To the reaction mixture was added 700 μl of a 0.05% TFA solution to stop the reaction. The product of was purified by means of a reverse-phase HPLC. Conditions of HPLC were as follows:
# (D) Preparation of membrane fraction of CHO (Chinese Hamster Ovary) cells containing human GnRH receptors
# CHO cells (10^9) expressing human GnRH receptors were suspended in a phosphate-buffered saline supplemented with 5 mM EDTA. The suspension was subjected to centrifugal separation for 5 minutes at 100×g. To the pellet of cells was added 10 ml of a homogenate buffer for cells (10 mM NaHCO3, 5 mM EDTA, pH 7.5), which was homogenated by using a Polytron homogenizer. Centrifugal separation was conducted for 15 minutes at 400×g. The supernatant was taken into an ultracentrifugal tube, which was subjected to centrifuge for one hour at 100,000×g to give precipitate of the membrane fraction. The precipitate was suspended in 2 ml of the assay buffer, which was centrifuged for one hour at 100,000×g. The membrane fraction recovered as precipitate was again suspended in 20 ml of the assay buffer, which was distributed to vials and stored at -80° C. until used.
# (E) Determination of inhibitory rate of ^125 I-leuprorelin binding
# In the cases of using rat and human pituitary membrane fractions prepared in (B) and (D), they were respectively diluted with the assay buffer to 200 μg/ml and 188 μl each was distributed to tubes. In the case of using bovine pituitary membrane fraction prepared in (C), it was diluted with the assay buffer to 750 μg/ml and 188 μl each was distributed into tubes. In the case where the membrane fraction of anterior lobes of rat pituitary gland was used, 2 μl of a 0.1 mM compound dissolved in 60% DMSO (dimethylsulfoxide) and 10 μl of 38 nM ^125 I-leuprorelin were added thereto simultaneously. In the case where the membrane fraction of anterior lobes of bovine pituitary gland and the membrane fraction derived from the CHO cells expressing human GnRH receptors were used, 2 μl of a 2 mM compound dissolved in 60% DMSO and 10 μl of 38 nM ^125 I-leuproprelin were added simultaneously. For determining the maximum binding amount, a solution for reaction supplemented with 2 μl of 60% DMSO and 10 μl of 38 nM ^125 I-leuprorelin was prepared. And, for determining the amount of non-specific binding, a solution for reaction supplemented with 2 μl of 100 μM leuprorelin dissolved in 60% DMSO and 10 μl of 38 nM ^125 I-leuprorelin were also prepared simultaneously.
# In the cases where membrane fractions of anterior lobes of rat and bovine pituitary were used, reaction was allowed to proceed at 4° C. for 90 minutes, while in the case where the membrane fraction derived from the CHO cells expressing human GnRH receptor was used, reaction was allowed to proceed at 25° C. for 60 minutes. The reaction mixtures were respectively subjected to filtration under sucking with Whatman glass filter (GF-F) processed with polyethyleneimine. After completing the filtration, radioactivity of the ^125 I-leuprorelin remaining on the filter paper was measured with a γ-counter.
# By calculation of (TB-SB)/(TB-NSB)×100 (SB: radioactivity obtained when a compound was added, TB: radioactivity for the maximum binding, NSB: radioactivity for the non-specific binding), the binding inhibitory rate of each test compound was determined. Besides, the inhibitory rates were determined by changing the concentrations of test compounds, and the concentration of a test compound inhibiting the specific binding by 50% (IC50 value) was calculated by way of Hill plot.
row,SMILES,IC50 [µM]
1,O=C1[C@H]2CC=CC[C@H]2C(=O)N1CC(=O)N1c2ccccc2N(Cc2ccccc2)C(=O)[C@H]2CCC[C@H]21 (relative stereo) [compound 80],9
2,O=C1C2=C(CCCC2)C(=O)N1CC(=O)N1c2ccccc2N(Cc2cccc3ccccc23)C(=O)[C@H]2CCC[C@H]21 (relative stereo) [compound 170],0.6
3,O=C1c2ccccc2C(=O)N1CC(=O)N1c2ccccc2N(Cc2cccnc2)C(=O)[C@H]2CCC[C@H]21 (relative stereo) [compound 119],10
4,O=C1c2ccccc2C(=O)N1CC(=O)N1c2ccccc2N(Cc2cccc([N+](=O)[O-])c2)C(=O)[C@H]2CCC[C@H]21 (relative stereo) [compound 209],2
5,O=C1C2=C(CCCC2)C(=O)N1CC(=O)N1c2ccccc2N(Cc2ccccc2)C(=O)C2CCCC21 (stereo not shown) [compound 76],1
6,CSc1ccc(CN2C(=O)[C@H]3CCC[C@H]3N(C(=O)CN3C(=O)c4ccccc4C3=O)c3ccccc32)cc1 (relative stereo) [compound 212],1
7,O=C1C2CCCCC2C(=O)N1CC(=O)N1c2ccccc2N(Cc2ccccc2)C(=O)C2CCCC21 (stereo not shown) [compound 174],5
8,O=C1c2ccccc2C(O)N1CC(=O)N1c2ccccc2N(Cc2ccccc2)C[C@H]2CCC[C@H]21 (stereo partly shown) [compound 66],8
9,O=C1c2ccccc2C(=O)N1CCC(=O)N1c2ccccc2N(Cc2ccccc2)C(=O)[C@H]2CCC[C@H]21 (relative stereo) [compound 50],24
10,O=C1c2ccccc2C(=O)N1CC(=O)N1c2ccccc2N(Cc2ccc3ccccc3n2)C(=O)[C@H]2CCC[C@H]21 (relative stereo) [compound 184],0.8
11,O=C1c2ccccc2C(=O)N1CC(=O)N1c2ccccc2N(Cc2ccccn2)C(=O)[C@H]2CCC[C@H]21 (relative stereo) [compound 118],2
12,O=C1CC(/C=C/c2ccccc2)Nc2ccccc2N1Cc1ccccc1 (stereo not shown) [compound 36],2

# Tested on: pentobarbital-induced sleep in mice
# Test: Effect on pentobarbital-induced sleep in mice
# Type: in vivo, ICR male mice
# Conditions: 10 mg/kg orally, 30 minutes before sodium pentobarbital 55 mg/kg i.p.
# Method: (G) Effect on pentobarbital-induced sleep in mice
# ICR male mice of 5-6 week old were orally administered with test samples dissolved or suspended in a physiological saline solution or 5% gum solution dosage of 100 mg/kg (2-3 animals in each group), and behavioral observation was conducted at 15, 30, 60 and 120 minutes after the administration.
# As the next stage, ICR male mice of 4-5 week old were orally administered with test samples dissolved or suspended in a physiological saline solution or 5% gum arabic solution at a dosage which was one rank lower than the dosage determined as above (8 animals in each group). Thirty minutes after the administration, test animals were administered intraperitoneally with sodium pentobarbital at a dosage of 55 mg/kg. The duration of sleep was measured as the time from the onset of righting reflex until the righting reflex was regained.
row,SMILES,Percentage (%) of sleeping time relative to control [%]
1,O=C1C2CCCC2=Nc2ccccc2N1Cc1ccncc1 (stereo not shown) [compound 9],176

# Same assay, conditions: 20 mg/kg orally, 30 minutes before sodium pentobarbital 55 mg/kg i.p.
row,SMILES,Percentage (%) of sleeping time relative to control [%]
1,O=C1C2CCCC2=Nc2ccccc2N1Cc1ccccc1F (stereo not shown) [compound 5],140
2,CN1c2ccccc2N(Cc2ccccc2)C[C@H]2CCC[C@H]21 (relative stereo) [compound 45],124

# Same assay, conditions: 50 mg/kg orally, 30 minutes before sodium pentobarbital 55 mg/kg i.p.
row,SMILES,Percentage (%) of sleeping time relative to control [%]
1,O=C1[C@H]2CCC[C@H]2Nc2ccccc2N1Cc1ccc(Cl)cc1Cl (relative stereo) [compound 37],128
2,O=C1C2CCCC2=Nc2ccccc2N1Cc1ccc(Cl)cc1 (stereo not shown) [compound 4],140
